{
  "source": "patent US20170038387A1",
  "about": "“METHODS FOR TREATING CHRONIC LYMPHOCYTIC LEUKEMIA AND THE USE OF BIOMARKERS AS A PREDICTOR OF CLINICAL SENSITIVITY TO IMMUNOMODULATORY THERAPIES” (Celgene Corporation, priority 2015, published 2017)",
  "key": {"[1]": {"test_system": "samples from CLL patients", "test": "in vitro proliferation assays on samples from four groups of CLL patients", "format": "cell-based, human", "description": "The samples used in this study were from four groups of CLL patients."}, "primary CLL samples": {"test_system": "primary CLL samples", "test": "TMT-tagging and mass-spectrometry profiling of relative protein abundance after compound exposure", "format": "cell-based, human", "description": "Data import: Relative abundance (RA) data was imported into the R statistical programming environment v.3.1.2. Proteins with less than one spectral count in any of the three MS runs for each case scenario were filtered out and relative abundance was scale normalized to the same median by using normalizeBetweenArrays( ) function implemented in the limma package for Bioconductor (see Yang et al., Nucleic Acids Research, 30(4), e15 (2002)).\nComparative analysis: RA scores were log 2-transformed to perform direct comparison of compounds exposure versus DMSO control and a paired moderated t-test (see Smyth, Statistical Applications in Genetics and Molecular Biology, 3(1), article 3 (2004)) was performed by using lmfit( ) and eBayes( ) functions form limma package to test differential relative abundance between experimental conditions. For differential analysis across cases, the log-2 fold changes of replicates for two of the case scenarios were considered.\nLinear regression analysis: Linear regression was modeled by using lm( ) function from the stats package. This function provided the correlation coefficients as well as the linear fitted model. Data were assessed for outliers detection within the linear model via the Studentized residuals method (implemented in outlierTest( ) function from car package) and deemed significant if their q-values were under a threshold of 0.05 (5%).\nThe proteins subjected to the analysis were those with more than one spectral count matched in three MS runs representing each case scenario. A total of 6114, 6070, 5982 and 5382 proteins were retained for each case scenario. Differential expression analysis was applied to the high and consistent coverage of 4594 proteins quantified across all case scenarios. FIGS. 2A-2D show distribution of normalized relative abundances for each replicate of the four case scenarios (Cases B1-B4). The standard deviation of each replicate is represented as a stair-plot line at the bottom of the boxplot. FIGS. 3A-3D show heatmaps representing correlations of log 2 fold-changes of protein levels post compound treatment as compared with DMSO across conditions for all case scenarios. Low correlation of log 2 fold-changes at 6 hours may be due to the alteration of a small subset of proteins at an early time point without strong general effects across the proteome. Stronger correlations at 24 hours can be linked to a higher proportion of proteins perturbed reflecting downstream changes upon compound exposure."}, "CLL cell lines": {"test_system": "CLL cell lines", "test": "Thymidine incorporation assay (cell proliferation)", "format": "cell-based", "procedure": "After four days, cells were diluted 1:7 with fresh media, containing the same concentration of treatment compound. Three days later, ^3H-thymidine was added to label proliferating cells for 6-7 hours. Cells were then harvested onto filter plates for counting on a scintillation counter."}, "[2]": {"settings": "FIG. 5 heatmap, 10 μM, 24 hours, vs DMSO"}},
  "data": [
    {"compound": "Nc1cccc2c1CN(C1CCC(=O)NC1=O)C2=O", "note": "(centres unmarked) [lenalidomide, 1-oxo-2-(2,6-dioxopiperidin-3-yl)-4-aminoisoindoline, reference compound]", "values": [
      {"measurement": "effect on cell proliferation", "setting": "[1]; samples from the fourth group of patients (Case B4)", "value": "neither Compound A nor lenalidomide had any effect on cell proliferation"},
      {"measurement": "effect on cell proliferation", "setting": "[1]; samples from the third group of patients (Case B3)", "value": "no effect on cell proliferation"},
      {"measurement": "protein abundance levels of SELL, SNX20 and KLF13 upon exposure", "setting": "primary CLL samples; 10 μM, 24 hours", "value": "not affected or slightly increased"},
      {"measurement": "GZMB protein expression level upon exposure", "setting": "primary CLL samples; Case B1", "value": "increased"},
      {"measurement": "level of WIZ (widely-interspaced zinc-finger) upon exposure", "setting": "primary CLL samples; Case B1", "value": "increased"},
      {"measurement": "GZMB protein expression level upon exposure", "setting": "primary CLL samples; Case B4", "value": "decreased"},
      {"measurement": "levels of Group 4 proteins (6 proteins including IKZF3 and a second IKZF1 isoform) upon exposure", "setting": "primary CLL samples; [2]", "value": "mild effects"},
      {"measurement": "protein abundance levels of Group 3 proteins (SMNX20, SELL, KLF13, WIZ, IKZF1, NFKBIE, TCF7 and IRF8) upon exposure", "setting": "primary CLL samples; [2]", "value": "do not change or increase"},
      {"measurement": "responsiveness of cell lines to treatment", "setting": "CLL cell lines; Bucket #1 (EHEB and I83-E95)", "value": "responsive to both compounds"},
      {"measurement": "responsiveness of cell lines to treatment", "setting": "CLL cell lines; Bucket #2 (Mec2, CII, and CI)", "value": "responsive to both compounds"},
      {"measurement": "responsiveness of cell lines to treatment", "setting": "CLL cell lines; Bucket #4 (HG3)", "value": "not responsive to either Compound A or lenalidomide"}
    ]}
  ]
}
